# Experimental data published in US9320771B2, “TTO-based wide spectrum therapeutics, disinfectants and anesthetics for use in aquaculture” (priority 2006, dated 2016).
# Where two headings read alike, the source gives them in different places.
# Tests used:
# [1] = test system: atypical Aeromonas salmonicida; test: Culture and sensitivity test, zones of inhibition on T.S.A. culture media; assay type: cell-based; conditions: 24 h at 24° C.; for zone of inhibition at 30 µg/disc: Aeromonas salmonicida, 24 h, read-out: Zones of inhibition (mm) after 24 h
# Protocol: Four TTO-based compositions of the present invention, namely Compositions A-D (See Example 7) were evaluated in their efficacy to inhibit and prevent growth of atypical Aeromonas salmonicida, the causative agent of ulcerative disease of carps on T.S.A. culture media. Every culture plate was inoculated with Gram-negative Aeromonas Bacteria obtained from ulcerated Goldfish. Plates were sterile cultures incubated for 24 h at a temperature of 24° C. Inhibition of the TTO-based compositions was compared simultaneously with 2 familiar anti-bacterial medications, namely (i) Tetracycline (30 μg per disc); and (ii), Norfloxacin (10 30 μg per disc). Comparison discs were supplemented in the lab with 20 to 30 μg of the TTO-based compositions each: 50% Composition D; 50% Composition C; and 66% Composition B (See Example 7).
# [2] = test system: Red-clawed Crayfish (Cherax Quadricarinatus); test: Growth rate of Red-clawed Crayfish; assay type: in vivo; conditions: compared to the control group as base reference
# Protocol: In a separate experiment the growth rate of Red-clawed Crayfish treated with the TTO formulation was tested in comparison to an untreated tank and to two other disinfecting agents: formaldehyde and sodium bromide (e.g., commercially available Bromex™).
# viral diseases of fish = conditions: cited from earlier work
structure (smiles),measurement,setting,value
CCn1cc(C(=O)O)c(=O)c2cc(F)c(N3CCNCC3)cc21 [Norfloxacin],Zones of inhibition (mm) after 24 h,"[1]; 10 30 μg per disc, listed as Nx.",20 mm
same,zone of inhibition at 30 µg/disc,[1]; 10 30 μg per disc,28 mm
CN(C)[C@@H]1C(O)=C(C(N)=O)C(=O)[C@@]2(O)C(O)=C3C(=O)c4c(O)cccc4[C@@](C)(O)[C@H]3C[C@@H]12 [Tetracycline],Zones of inhibition (mm) after 24 h,[1]; 30 μg per disc,22 mm
same,zone of inhibition at 30 µg/disc,[1]; 30 μg per disc,18 mm
C=O [formaldehyde],growth rates,[2],about 0.08 % per day
CN(C)c1ccc(C(=C2C=CC(=[N+](C)C)C=C2)c2ccccc2)cc1 [malachite green],effectiveness against viral diseases of fish,viral diseases of fish,not effective
